Target: T1, human glucagon receptor (Homo sapiens, UniProt P47871)
T1 construct: made in house; host or cells: FreeStyle CHO cells, transient transfection with pMSRαneo/hGCGR; membrane fraction (35,000 rpm pellet)
Assay: Glucagon binding inhibitory activity ([125I]-glucagon binding to glucagon receptor membrane protein)
Details: test compound 10 μM; 0.4% DMSO = 0%, non-labeled glucagon 1 μM = 100%; read-out: inhibitory rate (%) at 10 μM
Summary of the method: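 Receptor source was a membrane fraction of transiently transfected CHO cells bearing human receptor; 90 min room-temperature binding, filtration harvest, scintillation counting.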

T1 sequence (P47871 26-477): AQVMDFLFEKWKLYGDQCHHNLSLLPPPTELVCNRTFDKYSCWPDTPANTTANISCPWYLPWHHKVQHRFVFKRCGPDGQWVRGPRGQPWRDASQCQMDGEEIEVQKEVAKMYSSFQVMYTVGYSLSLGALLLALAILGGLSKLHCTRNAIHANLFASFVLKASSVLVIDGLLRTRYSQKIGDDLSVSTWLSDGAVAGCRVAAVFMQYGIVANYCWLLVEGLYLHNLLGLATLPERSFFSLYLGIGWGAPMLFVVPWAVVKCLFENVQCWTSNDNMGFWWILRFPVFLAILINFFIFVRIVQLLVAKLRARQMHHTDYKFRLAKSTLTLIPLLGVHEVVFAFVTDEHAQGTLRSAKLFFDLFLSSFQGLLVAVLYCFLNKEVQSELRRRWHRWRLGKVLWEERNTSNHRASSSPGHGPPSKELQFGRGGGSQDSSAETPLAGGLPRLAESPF

inhibition at 10 µM [%]	SMILES
68	Cc1c(C(Nc2ccc(C(=O)N(C)CCC(=O)O)cc2)C2CCCCC2)oc2cccnc12 (stereo not shown) [Example A113, 3-{[(4-{[cyclohexyl(3-methylfuro[3,2-b]pyridin-2-yl)methyl]amino}phenyl)carbonyl](methyl)amino}propanoic acid]
70	COc1ccc2oc(C(Nc3ccc(C(=O)N(C)CCC(=O)O)cc3)c3ccccc3)c(C)c2c1 (stereo not shown) [Example A114, 3-{[(4-{[(5-methoxy-3-methyl-1-benzofuran-2-yl)(phenyl)methyl]amino}phenyl)carbonyl](methyl)amino}-propanoic acid]
53	CCNC(=O)Nc1ccc2oc(C(Nc3ccc(C(=O)N(C)CCC(=O)O)cc3)C3CCCCC3)c(C)c2c1 (stereo not shown) [Example A115, 3-[({4-[(cyclohexyl{5-[(ethylcarbamoyl)amino]-3-methyl-1-benzofuran-2-yl}methyl)amino]phenyl}carbonyl)(methyl)amino]propanoic acid]
58	COc1ccc2nc(C(Nc3ccc(C(=O)NCCC(=O)O)cc3)C3CCCCC3)n(C)c2c1 (stereo not shown) [Example A116, 3-{[(4-{[cyclohexyl(6-methoxy-1-methyl-1H-benzimidazol-2-yl)methyl]amino}phenyl)carbonyl]amino}propanoic acid]
70	CCCCCCC(Nc1ccc(C(=O)NCCC(=O)O)cc1)c1oc2ccc(OC)cc2c1C (stereo not shown) [Example A118, 3-{[(4-{[1-(5-methoxy-3-methyl-1-benzofuran-2-yl)heptyl]amino}phenyl)carbonyl]amino}propanoic acid]
70	CCCCCCC(Nc1ccc(C(=O)N(C)CCC(=O)O)cc1)c1oc2ccc(OC)cc2c1C (stereo not shown) [Example A119, 3-{[(4-{[1-(5-methoxy-3-methyl-1-benzofuran-2-yl)heptyl]amino}phenyl)carbonyl](methyl)amino}propanoic acid]
73	COc1ccc2oc(C(CCCCSC)Nc3ccc(C(=O)NCCC(=O)O)cc3)c(C)c2c1 (stereo not shown) [Example A120, 3-{[(4-{[1-(5-methoxy-3-methyl-1-benzofuran-2-yl)-5-(methylsulfanyl)pentyl]amino}phenyl)carbonyl]amino}propanoic acid]
59	COc1ccc2oc(C(CCCCSC)Nc3ccc(C(=O)N(C)CCC(=O)O)cc3)c(C)c2c1 (stereo not shown) [Example A121, 3-{[(4-{[1-(5-methoxy-3-methyl-1-benzofuran-2-yl)-5-(methylsulfanyl)pentyl]amino}phenyl)carbonyl](methyl)amino}-propanoic acid]
71	COCCCCC(Nc1ccc(C(=O)NCCC(=O)O)cc1)c1oc2ccc(OC)cc2c1C (stereo not shown) [Example A123, 3-{[(4-{[5-methoxy-1-(5-methoxy-3-methyl-1-benzofuran-2-yl)pentyl]amino}phenyl)carbonyl]amino}propanoic acid]
51	COCCCCC(Nc1ccc(C(=O)N(C)CCC(=O)O)cc1)c1oc2ccc(OC)cc2c1C (stereo not shown) [Example A124, 3-{[(4-{[5-methoxy-1-(5-methoxy-3-methyl-1-benzofuran-2-yl)pentyl]amino}phenyl)carbonyl](methyl)amino}propanoic acid]
69	Cc1c(C(Nc2ccc(C(=O)NCCC(=O)O)cc2)C2CCCCC2)oc2ccc(Br)nc12 (stereo not shown) [Example A125, 3-{[(4-{[(5-bromo-3-methylfuro[3,2-b]pyridin-2-yl)(cyclohexyl)methyl]amino}phenyl)carbonyl]amino}propanoic acid]
68	Cc1c(C(Nc2ccc(C(=O)N(C)CCC(=O)O)cc2)C2CCCCC2)oc2ccc(Br)nc12 (stereo not shown) [Example A126, 3-{[(4-{[(5-bromo-3-methylfuro[3,2-b]pyridin-2-yl)(cyclohexyl)methyl]amino}phenyl)carbonyl](methyl)amino}-propanoic acid]
71	Cc1c(C(Nc2ccc(C(=O)NCCC(=O)O)cc2)C2CCCCC2)oc2ccc(Cl)nc12 (stereo not shown) [Example A127, 3-{[(4-{[(5-chloro-3-methylfuro[3,2-b]pyridin-2-yl)(cyclohexyl)methyl]amino}phenyl)carbonyl]amino}propanoic acid]

Source: US8436043B2 (Takeda Pharmaceutical Company Limited, priority 2008, dated 2013)
